Patent publication US20250263370A1 (Tay Therapeutics Limited, priority 2022, published 2025)
pIC50: −log10 of the molar value.

Experiments:
BRD4 BD2 = BRD4 BD2 (Homo sapiens (Human), UniProt O60885); experiment: NanoBRET bromodomain assay, NanoLuc-BRD4-BD2 fusion in HEK293 cells; details: for pIC50: BRD4 BD2 (IC50), NanoBRET, HEK293 cells, top concentration 10 μM; for Fold selectivity: IC50 for BRD4 BD1 divided by IC50 for BRD4 BD2, qualitative if an IC50 is at the upper limit;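 for all read-outs here: tracer displacement BRET read in transfected cells after 2 h compound exposure at 37 °C, signal in milliBRET units corrected against no-tracer background wells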
Protocol: HEK293 cells were transfected using NanoLuc-BRD4-BD1 or NanoLuc-BRD4-BD2 fusion vectors and incubated at 37° C. in an atmosphere of 5% CO2 for 20-24 hours. The transfected cells were then dispensed into 96-well plates using 90 μl cell suspension per well containing 2×10^5 cells/mL in Opti-MEM and 1× final concentration of tracer. 90 μL per well of cell suspension without tracer was also dispensed into at least 3 wells as “No tracer control samples” for background correction. Serially diluted test compounds were prepared at 1000× concentration in DMSO and further diluted to 10× concentration in Opti-MEM. […] Plates were then incubated at 37° C. +5% 002 incubator for 2 hours. […] Donor emission (450 nm) and acceptor emission (610 nm) were measured using PHERAstar (BMG LabTech). For data analysis, the raw BRET ratio was generated and converted to milliBRET units with background correction using the formula: [(Acceptorsample/Donorsample−(Acceptorno tracer control/Donorno tracer control)]×1000. The mBU data was plotted as a function of compound concentration and IC50s for BRET assay were determined by nonlinear regression analysis of concentration response curves using the Collaborative Drug Discovery Vault software. The fold-selectivity was calculated by dividing the IC50 for BRD4 BD1 by the IC50 for BRD4 BD2.

BRD4 BD1 = BRD4 BD1 (Homo sapiens (Human), UniProt O60885); experiment: NanoBRET bromodomain assay, NanoLuc-BRD4-BD1 fusion in HEK293 cells; format: cell-based; details: top concentration 10 μM

pIC50 (BRD4 BD2)	Fold selectivity (BRD4 BD2)	pIC50 (BRD4 BD1)	Compound
6.00 to 6.70	X (Fold >2 and ≤50)	≤ 5.00	CCNC(=O)c1cc(OC(C)c2ccc(C(F)(F)F)cc2)c(C(=O)NC)[nH]1 (racemic) [Example 1, N^5-ethyl-N^2-methyl-3-(1-(4-(trifluoromethyl)phenyl)ethoxy)-1H-pyrrole-2,5-dicarboxamide]
6.70 to 7.30	XX (Fold >50 and ≤200)	≤ 5.00	CCNC(=O)c1cc(OC(C)c2ccccc2C(F)(F)F)c(C(=O)NC)[nH]1 (racemic) [Example 2, N^5-ethyl-N^2-methyl-3-(1-(2-(trifluoromethyl)phenyl)ethoxy)-1H-pyrrole-2,5-dicarboxamide]
6.70 to 7.30	XX (Fold >50 and ≤200)	≤ 5.00	CCNC(=O)c1cc(OC(C)c2cccc(Cl)c2)c(C(=O)NC)[nH]1 (racemic) [Example 3, 3-(1-(3-chlorophenyl)ethoxy)-N^5-ethyl-N^2-methyl-1H-pyrrole-2,5-dicarboxamide]
6.70 to 7.30	XX (Fold >50 and ≤200)	≤ 5.00	CCNC(=O)c1cc(OC(C)c2ccccc2C)c(C(=O)NC)[nH]1 (racemic) [Example 5, N^5-ethyl-N^2-methyl-3-(1-(o-tolyl)ethoxy)-1H-pyrrole-2,5-dicarboxamide]
6.00 to 6.70	X (Fold >2 and ≤50)	≤ 5.00	CCNC(=O)c1cc(OC(C)c2ccccc2Cl)c(C(=O)NC)[nH]1 (racemic) [Example 6, 3-(1-(2-chlorophenyl)ethoxy)-N^5-ethyl-N^2-methyl-1H-pyrrole-2,5-dicarboxamide]
< 5.00	— (Fold ≥0 and ≤2)	≤ 5.00	CCNC(=O)c1cc(OC(CCOC)c2ccccc2)c(C(=O)NC)[nH]1 (racemic) [Example 8, N^5-ethyl-3-(3-methoxy-1-phenylpropoxy)-N^2-methyl-1H-pyrrole-2,5-dicarboxamide]
< 5.00	— (Fold ≥0 and ≤2)	≤ 5.00	CCNC(=O)c1cc(OC(C)c2ccc(C#N)cc2)c(C(=O)NC)[nH]1 (racemic) [Example 9, 3-(1-(4-cyanophenyl)ethoxy)-N^5-ethyl-N^2-methyl-1H-pyrrole-2,5-dicarboxamide]
< 5.00	— (Fold ≥0 and ≤2)	≤ 5.00	CCNC(=O)c1cc(OC(COC)c2ccccc2)c(C(=O)NC)[nH]1 (racemic) [Example 10, N^5-ethyl-3-(2-methoxy-1-phenylethoxy)-N^2-methyl-1H-pyrrole-2,5-dicarboxamide]
–	— (Fold ≥0 and ≤2)	–	CNC(=O)c1[nH]c(C(=O)NC2CCC2)cc1OC(C)c1ccc(Cl)cc1 (single isomer, unassigned) [Example 28, 3-(1-(4-chlorophenyl)ethoxy)-N^5-cyclobutyl-N^2-methyl-1H-pyrrole-2,5-dicarboxamide]
–	— (Fold ≥0 and ≤2)	–	CCNC(=O)c1cc(OC(C)c2c(C)cccc2C)c(C(=O)NC)[nH]1 (single isomer, unassigned) [Example 64, 3-(1-(2,6-dimethylphenyl)ethoxy)-N^5-ethyl-N^2-methyl-1H-pyrrole-2,5-dicarboxamide]
–	— (Fold ≥0 and ≤2)	–	CNC(=O)c1[nH]c(C(=O)N[C@H]2CC[C@H](O)CC2)cc1O[C@@H](C)c1ccnnc1 (single isomer, unassigned) [Example 92, N^5-(4-hydroxycyclohexyl)-N^2-methyl-3-(1-(pyridazin-4-yl)ethoxy)-1H-pyrrole-2,5-dicarboxamide]

Compound	pIC50 (BRD4 BD2)	Fold selectivity (BRD4 BD2)	pIC50 (BRD4 BD1)
CCNC(=O)c1cc(OC(C)c2cccc(OC)c2)c(C(=O)NC)[nH]1 (racemic) [Example 7, N^5-ethyl-3-(1-(3-methoxyphenyl)ethoxy)-N^2-methyl-1H-pyrrole-2,5-dicarboxamide]	6.00 to 6.70	X (Fold >2 and ≤50)	≤ 5.00
